The results in this text go back to ChEMBL document CHEMBL1201862, “PubChem BioAssay data set” (2004).

Active and inactive are the calls of the source.

A short description of series [1]: Dose-response inhibition of insulin secretion in a rat insulinoma line at 5 mM glucose (AID 1117331). It counts as functional, cell-based. The settings on record: INS-1E.
In series [2] the target is T1, Voltage-gated N-type calcium channel alpha-1B subunit/Amyloid beta A4 precursor protein-binding family A member 1 (Homo sapiens, UniProt Q00975+Q02410). It counts as protein assay.
T1 sequence (Q00975 whole entry): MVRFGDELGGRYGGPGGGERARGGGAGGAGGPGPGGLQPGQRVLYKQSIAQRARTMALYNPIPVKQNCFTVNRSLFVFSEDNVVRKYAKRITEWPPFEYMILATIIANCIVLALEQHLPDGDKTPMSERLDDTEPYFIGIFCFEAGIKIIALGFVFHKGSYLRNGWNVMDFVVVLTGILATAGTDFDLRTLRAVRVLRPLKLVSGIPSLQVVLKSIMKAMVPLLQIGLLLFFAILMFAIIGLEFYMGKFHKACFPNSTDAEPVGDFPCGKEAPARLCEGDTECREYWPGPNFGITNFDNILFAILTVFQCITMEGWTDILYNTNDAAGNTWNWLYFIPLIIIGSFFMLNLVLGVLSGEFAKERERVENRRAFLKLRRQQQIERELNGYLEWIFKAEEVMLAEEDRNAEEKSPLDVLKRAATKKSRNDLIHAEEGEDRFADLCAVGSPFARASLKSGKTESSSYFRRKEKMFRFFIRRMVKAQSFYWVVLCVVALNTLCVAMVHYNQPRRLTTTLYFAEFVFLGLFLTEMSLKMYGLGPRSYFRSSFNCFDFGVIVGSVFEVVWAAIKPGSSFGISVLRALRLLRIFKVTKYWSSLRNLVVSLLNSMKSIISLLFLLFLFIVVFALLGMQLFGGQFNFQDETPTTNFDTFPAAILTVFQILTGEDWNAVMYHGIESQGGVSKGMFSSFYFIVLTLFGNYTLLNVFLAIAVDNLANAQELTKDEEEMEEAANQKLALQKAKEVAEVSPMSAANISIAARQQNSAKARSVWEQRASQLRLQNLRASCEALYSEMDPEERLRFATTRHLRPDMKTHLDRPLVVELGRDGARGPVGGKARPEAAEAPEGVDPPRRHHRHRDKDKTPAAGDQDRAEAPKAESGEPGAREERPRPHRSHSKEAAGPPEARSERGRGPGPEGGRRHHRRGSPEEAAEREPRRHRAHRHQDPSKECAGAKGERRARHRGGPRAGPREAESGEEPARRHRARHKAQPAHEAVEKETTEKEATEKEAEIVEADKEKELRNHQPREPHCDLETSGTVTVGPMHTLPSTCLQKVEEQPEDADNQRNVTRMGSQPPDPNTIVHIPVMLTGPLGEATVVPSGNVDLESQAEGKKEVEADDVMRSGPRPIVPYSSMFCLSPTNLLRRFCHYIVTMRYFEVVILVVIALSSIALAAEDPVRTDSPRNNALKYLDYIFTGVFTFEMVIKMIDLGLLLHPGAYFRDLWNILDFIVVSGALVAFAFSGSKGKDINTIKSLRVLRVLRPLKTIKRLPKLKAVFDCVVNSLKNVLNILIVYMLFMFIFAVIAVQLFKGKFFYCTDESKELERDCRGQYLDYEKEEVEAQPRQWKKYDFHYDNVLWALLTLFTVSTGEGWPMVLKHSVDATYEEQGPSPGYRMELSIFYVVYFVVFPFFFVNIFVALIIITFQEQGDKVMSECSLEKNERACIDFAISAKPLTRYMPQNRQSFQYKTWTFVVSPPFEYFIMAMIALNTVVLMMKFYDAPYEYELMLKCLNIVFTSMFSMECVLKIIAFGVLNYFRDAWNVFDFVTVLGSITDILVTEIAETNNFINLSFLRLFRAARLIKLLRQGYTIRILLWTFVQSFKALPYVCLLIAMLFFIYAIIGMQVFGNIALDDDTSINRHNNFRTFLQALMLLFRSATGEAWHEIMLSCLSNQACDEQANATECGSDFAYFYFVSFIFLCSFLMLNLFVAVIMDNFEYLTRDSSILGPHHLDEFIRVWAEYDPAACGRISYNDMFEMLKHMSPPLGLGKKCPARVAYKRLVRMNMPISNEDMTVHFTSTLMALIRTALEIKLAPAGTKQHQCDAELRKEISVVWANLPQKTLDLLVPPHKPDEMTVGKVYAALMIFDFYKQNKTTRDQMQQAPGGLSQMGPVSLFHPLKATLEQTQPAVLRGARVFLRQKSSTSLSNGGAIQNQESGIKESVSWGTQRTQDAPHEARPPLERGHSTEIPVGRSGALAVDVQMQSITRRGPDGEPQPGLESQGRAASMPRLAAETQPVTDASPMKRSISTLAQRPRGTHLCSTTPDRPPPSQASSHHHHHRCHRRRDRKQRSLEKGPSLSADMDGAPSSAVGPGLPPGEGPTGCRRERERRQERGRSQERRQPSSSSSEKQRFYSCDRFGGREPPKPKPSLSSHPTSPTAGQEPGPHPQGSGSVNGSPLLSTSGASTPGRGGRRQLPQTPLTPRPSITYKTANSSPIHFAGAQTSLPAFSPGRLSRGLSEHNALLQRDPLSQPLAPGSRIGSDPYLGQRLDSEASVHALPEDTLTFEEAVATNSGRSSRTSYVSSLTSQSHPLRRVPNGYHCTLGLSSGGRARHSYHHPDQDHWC
T1 sequence (Q02410 whole entry): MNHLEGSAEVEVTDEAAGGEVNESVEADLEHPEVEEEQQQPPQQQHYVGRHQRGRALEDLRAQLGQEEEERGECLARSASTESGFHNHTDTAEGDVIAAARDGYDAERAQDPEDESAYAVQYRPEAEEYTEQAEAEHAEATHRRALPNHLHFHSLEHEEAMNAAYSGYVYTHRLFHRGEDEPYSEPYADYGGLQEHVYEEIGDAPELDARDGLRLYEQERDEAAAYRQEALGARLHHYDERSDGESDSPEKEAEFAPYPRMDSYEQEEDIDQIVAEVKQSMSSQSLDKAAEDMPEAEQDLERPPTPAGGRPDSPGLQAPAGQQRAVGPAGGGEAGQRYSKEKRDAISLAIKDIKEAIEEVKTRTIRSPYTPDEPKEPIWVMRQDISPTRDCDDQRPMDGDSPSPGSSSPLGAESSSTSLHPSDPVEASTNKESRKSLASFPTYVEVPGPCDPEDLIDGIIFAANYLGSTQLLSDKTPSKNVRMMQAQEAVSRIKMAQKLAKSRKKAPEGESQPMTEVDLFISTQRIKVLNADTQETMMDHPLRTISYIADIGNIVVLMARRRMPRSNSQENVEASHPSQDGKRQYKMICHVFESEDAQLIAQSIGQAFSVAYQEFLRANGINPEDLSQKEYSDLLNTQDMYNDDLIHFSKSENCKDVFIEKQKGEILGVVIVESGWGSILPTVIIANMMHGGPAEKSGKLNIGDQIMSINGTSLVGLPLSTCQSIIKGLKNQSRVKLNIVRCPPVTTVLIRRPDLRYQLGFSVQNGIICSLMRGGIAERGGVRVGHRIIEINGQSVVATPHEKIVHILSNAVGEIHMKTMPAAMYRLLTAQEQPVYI
The target in a further series is Prothrombin (Bos taurus, UniProt P00735). As to the kind of experiment: thrombin inhibition, dose response, biochemical, fluorescence polarization, uHTS hits (AID 602369). Format: functional.
The target in a further series is Cytochrome P450 2C19 (Homo sapiens, UniProt P33261). In words: Cytochrome panel assay with activity outcomes. Panel member name: p450-cyp2c19 Compounds with AC50 equal or less than 10 uM are considered active. Format: functional. The following applies: read-out: AC50.
Chain of Cytochrome P450 2C19 (P33261 whole entry): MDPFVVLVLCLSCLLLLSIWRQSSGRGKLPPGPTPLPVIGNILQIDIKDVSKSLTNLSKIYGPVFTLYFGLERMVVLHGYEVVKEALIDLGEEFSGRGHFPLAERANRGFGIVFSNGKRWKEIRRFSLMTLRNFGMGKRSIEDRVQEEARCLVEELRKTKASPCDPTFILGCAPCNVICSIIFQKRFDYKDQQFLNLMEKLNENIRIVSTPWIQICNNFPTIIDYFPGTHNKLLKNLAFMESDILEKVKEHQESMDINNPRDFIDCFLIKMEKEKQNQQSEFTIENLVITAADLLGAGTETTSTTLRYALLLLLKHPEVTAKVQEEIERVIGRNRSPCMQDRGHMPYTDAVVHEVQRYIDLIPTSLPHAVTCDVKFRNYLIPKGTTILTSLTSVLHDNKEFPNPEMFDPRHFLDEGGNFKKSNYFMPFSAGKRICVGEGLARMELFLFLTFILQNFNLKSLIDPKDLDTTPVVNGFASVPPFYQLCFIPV
Series [3] deals with 26S proteasome non-ATPase regulatory subunit 14 (Homo sapiens, UniProt O00487). As to the kind of experiment: inhibition of proteasome subunit RPN11 – biochemical, fluorescence polarization, uHTS hits, confirmation (AID 602368). Format: functional.
For series [4], the target named is T1, Voltage-gated N-type calcium channel alpha-1B subunit/Amyloid beta A4 precursor protein-binding family A member 1. It counts as protein assay. The source holds these as a separate data set.
Series [5] deals with T2, Fibrinogen beta chain (Homo sapiens, UniProt P02675). In words: Fluorescence polarization-based biochemical high throughput dose response assay to identify inhibitors that disrupt the binding of a cyclic peptide (Tn7) to the fibrin proteolytic product D-Dimer and fragment E complex [DD(E )].
T2 sequence (P02675 whole entry, the tested form may be a part): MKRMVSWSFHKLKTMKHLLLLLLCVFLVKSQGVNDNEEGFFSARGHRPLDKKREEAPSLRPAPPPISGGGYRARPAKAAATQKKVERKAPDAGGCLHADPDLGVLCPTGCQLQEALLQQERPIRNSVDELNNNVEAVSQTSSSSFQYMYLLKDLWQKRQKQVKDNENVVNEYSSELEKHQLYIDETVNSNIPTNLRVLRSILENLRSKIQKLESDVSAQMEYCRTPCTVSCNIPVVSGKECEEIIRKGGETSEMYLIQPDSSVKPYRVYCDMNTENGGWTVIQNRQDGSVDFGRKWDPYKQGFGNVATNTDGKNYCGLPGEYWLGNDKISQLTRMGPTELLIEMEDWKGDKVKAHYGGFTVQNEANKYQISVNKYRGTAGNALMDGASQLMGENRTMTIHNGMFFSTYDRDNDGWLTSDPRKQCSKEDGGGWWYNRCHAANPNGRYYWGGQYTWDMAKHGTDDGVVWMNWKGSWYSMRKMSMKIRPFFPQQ
For the next series, the target named is Cytochrome P450 3A4 (Homo sapiens, UniProt P08684).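 Note: CYP3A4 tested as one member of a cytochrome P450 panel screen.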
Series [6] addresses T2, Fibrinogen beta chain. As to the kind of experiment: Fluorescence polarization-based biochemical high throughput dose response assay to identify inhibitors that disrupt the binding of a cyclic peptide (Tn6) to the fibrin proteolytic product D-Dimer and fragment E complex [DD(E )].
The target in series [7] is 72 kDa type IV collagenase (Homo sapiens, UniProt P08253). In words: Dose Response validation of uHTS RPN11 inhibitor hits using a MMP-2 Fluorescence assay. It counts as functional.
Chain of 72 kDa type IV collagenase (P08253 whole entry): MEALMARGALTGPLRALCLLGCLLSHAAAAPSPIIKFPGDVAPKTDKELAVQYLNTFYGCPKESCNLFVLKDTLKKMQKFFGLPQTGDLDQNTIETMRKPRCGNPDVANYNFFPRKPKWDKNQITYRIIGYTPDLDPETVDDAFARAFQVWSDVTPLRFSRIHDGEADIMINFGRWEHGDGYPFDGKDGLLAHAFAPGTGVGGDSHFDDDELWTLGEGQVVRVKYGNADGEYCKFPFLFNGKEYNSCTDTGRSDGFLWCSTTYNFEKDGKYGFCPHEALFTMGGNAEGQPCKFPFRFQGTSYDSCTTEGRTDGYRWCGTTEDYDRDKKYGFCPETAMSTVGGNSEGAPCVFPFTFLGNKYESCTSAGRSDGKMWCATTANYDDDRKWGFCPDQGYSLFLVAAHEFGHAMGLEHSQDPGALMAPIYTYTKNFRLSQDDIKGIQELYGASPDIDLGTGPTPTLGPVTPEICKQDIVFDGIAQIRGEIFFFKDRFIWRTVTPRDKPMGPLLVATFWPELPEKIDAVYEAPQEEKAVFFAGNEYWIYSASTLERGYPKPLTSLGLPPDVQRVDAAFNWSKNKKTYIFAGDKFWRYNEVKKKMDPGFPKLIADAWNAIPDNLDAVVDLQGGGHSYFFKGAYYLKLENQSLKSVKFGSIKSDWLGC
Series [8] in a line: cytotoxicity toward NIH3T3 fibroblasts, dose response, counter-screen, cell-based, ATP luminescence, mouse fibroblasts (AID 2010).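 Note: cells exposed to compound for about 90 hours before reading.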 Format: functional.
Series [9] is described as follows: Vero cell cytotoxicity, dose response, cytotoxicity control for Vif-APOBEC3G degradation inhibitor project, Vero cells (AID 1117358). The settings on record: Human immunodeficiency virus 1, Vero. It counts as functional.
A short description of series [10]: inhibitors of intracellular T. cruzi replication, confirmation, NIH3T3 host cells, beta-gal luminescence (AID 2044).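 Note: intracellular parasites grown in NIH/3T3 mouse fibroblasts as host cells; luminescent beta-galactosidase reporter signal from transgenic T. cruzi replicating inside host cells; inhibitors lower the luminescence signal.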 Format: functional, cell-based.
A further series deals with T3, Estrogen receptor (Homo sapiens, UniProt P03372).
T3 sequence (P03372 whole entry): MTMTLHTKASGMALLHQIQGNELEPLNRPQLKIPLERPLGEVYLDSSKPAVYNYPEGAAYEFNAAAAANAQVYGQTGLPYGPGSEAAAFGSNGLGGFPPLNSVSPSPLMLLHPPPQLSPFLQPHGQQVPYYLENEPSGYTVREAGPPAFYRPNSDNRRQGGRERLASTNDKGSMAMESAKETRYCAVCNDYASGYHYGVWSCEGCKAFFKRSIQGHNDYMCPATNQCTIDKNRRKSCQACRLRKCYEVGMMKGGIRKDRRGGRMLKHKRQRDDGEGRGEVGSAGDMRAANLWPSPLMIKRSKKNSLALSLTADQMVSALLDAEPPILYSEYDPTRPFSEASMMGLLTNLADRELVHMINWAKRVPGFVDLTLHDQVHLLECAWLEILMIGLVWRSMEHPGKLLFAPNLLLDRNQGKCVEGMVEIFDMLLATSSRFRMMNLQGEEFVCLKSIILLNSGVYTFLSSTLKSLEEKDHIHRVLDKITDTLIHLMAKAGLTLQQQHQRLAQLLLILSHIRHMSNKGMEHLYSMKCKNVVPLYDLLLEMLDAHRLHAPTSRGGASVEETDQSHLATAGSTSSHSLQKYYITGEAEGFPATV

A short description of series [11]: inhibitors of Vif binding to APOBEC3G peptide, primary screen, biochemical, TR-FRET, GST-Vif 1-94, biotin-A3G peptide, dose response retest (AID 1117319).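 Note: TR-FRET signal of purified GST-Vif binding a biotinylated A3G peptide; inhibitors lower the FRET signal by blocking Vif and A3G binding.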 Format: functional.
For a further series, the target named is Estrogen receptor beta (Homo sapiens, UniProt Q92731).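 Note: recombinant ER-beta bound to coactivator SRC1 peptide in presence of estradiol agonist; inhibitors block coactivator peptide binding and lower the FRET signal.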
Series [12] can be described thus: THP-1 cell cytotoxicity, dose response, cytotoxicity control for Vif-APOBEC3G degradation inhibitor project, THP-1 cells (AID 1117359). It counts as functional. The settings on record: Human immunodeficiency virus 1, THP-1.

For the compound `CN1CCN(CCC(=O)N2c3ccccc3Sc3ccc(C(F)(F)F)cc32)CC1` [FTORMETAZINE], in [1], the IC50 was > 11.1 µM (inactive).

In the case of `NS(=O)(=O)c1ccc(NS(=O)(=O)c2ccc(NC(=O)c3ccc(-c4ccccc4)cc3)cc2)cc1`, the concentration for half-maximal inhibition (IC50) in series [2] is 12.1 µM (active); on Prothrombin it was 33.4 µM (active); in series [3], 6.71 µM (active); in series [4], > 50 µM (inactive); at Fibrinogen beta chain [5], > 83.3 µM (inactive); on Fibrinogen beta chain [6], 14.3 µM (inactive). For the same compound, the IC50 in [7] is > 100 µM (inactive). Also, the values for the concentration at half-maximal activity (AC50) on Cytochrome P450 2C19 and on Cytochrome P450 3A4 were 0.562 µM (inconclusive) and “inconclusive”, respectively.

In the case of `CN(C)S(=O)(=O)c1ccc(NC(=O)N2CCN(c3cccc(C(F)(F)F)c3)CC2)cc1`, the 50% effective concentration (EC50) in [8] is > 60 µM (not active); in series [10], 3.61 µM (active). Moreover, in series [9], the cytotoxic concentration (CC50) was > 40 µM (active).

As for `CSc1ccc(C2C(C#N)=C(N)Oc3c2ccc(=O)c2c(C)oc(C)c32)cc1` (configuration not stated), the 50% inhibitory concentration (IC50) at Estrogen receptor was > 50 µM (not active); in [11], > 53.2 µM (active); against Estrogen receptor beta, > 50 µM (not active). Further, the CC50 in [12] is > 40 µM (active).
